± gives the standard deviation of the averaged measurements.
How the values were obtained:
Test in all cases: level (log10 ratio to DMSO vehicle control); higher = higher biomarker level / cell amount than vehicle control
Conditions in all cases: in DMSO
Pentafluoropropionamide = compound: NC(=O)C(F)(F)C(F)(F)F [Pentafluoropropionamide]
Protocol: (§1)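 BioMAP Diversity Plus panel of 12 human primary cell co-culture systems (3C, 4H, LPS, SAg, BT, BF4T, BE3C, CASM3C, HDF3CGF, KF3CT, MyoF, Mphg). Compounds were added 1 h before stimulation and left for 24 h (MyoF 48 h; BT 72 h for soluble read-outs or 6 d for IgG). Biomarkers were read by ELISA, cytotoxicity by SRB, PBMC viability and proliferation by Alamar Blue. Each well value was divided by the mean of 8 DMSO control wells on the same plate and log10 transformed; duplicate blinded samples were tested at 4 concentrations.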

Perfluoro-1-iodohexane = compound: FC(F)(F)C(F)(F)C(F)(F)C(F)(F)C(F)(F)C(F)(F)I [Perfluoro-1-iodohexane]
Protocol: as §1

Perfluorodecanoic acid = compound: O=C(O)C(F)(F)C(F)(F)C(F)(F)C(F)(F)C(F)(F)C(F)(F)C(F)(F)C(F)(F)C(F)(F)F [Perfluorodecanoic acid]
Protocol: as §1

[1] = compound: CCN(CCO)S(=O)(=O)C(F)(F)C(F)(F)C(F)(F)C(F)(F)C(F)(F)C(F)(F)C(F)(F)C(F)(F)F [N-Ethyl-N-(2-hydroxyethyl)perfluorooctanesulfonamide]
Protocol: as §1

[2] = compound: O=C(O)C(F)(F)OC(F)(F)C(F)(F)OC(F)(F)F [Perfluoro-3,6-dioxaheptanoic acid]
Protocol: as §1

[3] = compound: O=C(O)C(F)(F)C(F)(F)C(F)(F)C(F)(F)C(F)(F)C(F)(F)C(F)(F)C(F)F [9-H-Perfluorononanoic acid]
Protocol: as §1

[4] = compound: NCC(F)(F)C(F)(F)C(F)(F)C(F)(F)C(F)(F)C(F)(F)C(F)(F)F [1H,1H-Perfluorooctylamine]
Protocol: as §1

Test System	level (log10) (Pentafluoropropionamide; 6700 nM)	level (log10) (Pentafluoropropionamide; 20000 nM)	level (log10) (Pentafluoropropionamide; 60000 nM)	level (log10) (Perfluoro-1-iodohexane; 6700 nM)	level (log10) (Perfluoro-1-iodohexane; 20000 nM)	level (log10) (Perfluoro-1-iodohexane; 60000 nM)	level (log10) (Perfluorodecanoic acid; 6700 nM)	level (log10) (Perfluorodecanoic acid; 20000 nM)	level (log10) ([1]; 6700 nM)	level (log10) ([1]; 20000 nM)	level (log10) ([2]; 6700 nM)	level (log10) ([2]; 20000 nM)	level (log10) ([2]; 60000 nM)	level (log10) ([3]; 6700 nM)	level (log10) ([3]; 20000 nM)	level (log10) ([3]; 60000 nM)	level (log10) ([4]; 6700 nM)	level (log10) ([4]; 20000 nM)	level (log10) ([4]; 60000 nM)
HDF3CGF:Collagen III	0.026 ± 0.02	0.009 ± 0.028	0.034 ± 0.0028	-0.0405 ± 0.066	-0.0755 ± 0.0021	-0.178 ± 0.13	-0.08 ± 0.058	-0.0755 ± 0.021	-0.0465 ± 0.05	-0.142 ± 0.044	0.0025 ± 0.0078	0.0225 ± 0.0035	0.0375 ± 0.022	-0.047 ± 0.013	-0.115 ± 0.013	-0.155 ± 0.057	-0.009 ± 0.021	-0.0055 ± 0.00071	-0.0165 ± 0.023
CASM3C:CD106/VCAM-1	-0.016 ± 0.016	-0.014 ± 0.02	-0.022 ± 0.011	0.003 ± 0.017	-0.003 ± 0.025	-0.023 ± 0.041	0.0015 ± 0.0092	-0.036 ± 0.0085	-0.085 ± 0.0057	-0.219 ± 0.021	0.0345 ± 0.029	0.0105 ± 0.037	-0.06 ± 0.021	-0.0215 ± 0.012	-0.019 ± 0.02	-0.0315 ± 0.005	-0.018 ± 0.058	-0.007 ± 0.035	-0.0105 ± 0.015
KF3CT:CCL2/MCP-1	-0.0205 ± 0.015	-0.0285 ± 0.023	0.0155 ± 0.071	0.0225 ± 0.032	-0.015 ± 0.0014	-0.0185 ± 0.047	-0.127 ± 0.023	-0.321 ± 0.032	-0.0205 ± 0.0078	-0.102 ± 0.019	-0.0175 ± 0.016	-0.0345 ± 0.0078	0.0395 ± 0.028	-0.04 ± 0.0028	-0.0335 ± 0.0078	0.009 ± 0.065	-0.0055 ± 0.043	-0.021 ± 0.013	0.0045 ± 0.0078
MyoF:SRB	0.0045 ± 0.0021	-0.007 ± 0.0057	-0.0015 ± 0.0035	-0.0405 ± 0.05	-0.263 ± 0.16	-0.712 ± 0.15	-0.033 ± 0.0014	-0.08 ± 0.0099	-0.0265 ± 0.00071	-0.175 ± 0.07	-0.0055 ± 0.0035	-0.0015 ± 0.00071	0.004 ± 0.0085	0.015 ± 0.0042	0.003	-0.0105 ± 0.0064	0.0035 ± 0.0021	-0.002 ± 0.0057	0.0005 ± 0.005
MyoF:Collagen I	0.012 ± 0.0057	0.006 ± 0.0028	0.01 ± 0.0028	-0.0295 ± 0.019	-0.062 ± 0.04	-0.246 ± 0.094	-0.0065 ± 0.059	-0.417 ± 0.071	0.042 ± 0.0028	-0.155 ± 0.029	-0.0185 ± 0.039	-0.002 ± 0.0099	-0.0155 ± 0.023	0.0035 ± 0.0021	0.0025 ± 0.0035	-0.0365 ± 0.0092	0.012 ± 0.014	-0.016 ± 0.0042	0.013 ± 0.021
CASM3C:IL-6	-0.021 ± 0.017	-0.025 ± 0.0028	-0.003 ± 0.041	-0.0035 ± 0.012	-0.0055 ± 0.0021	0.018 ± 0.0099	-0.035 ± 0.037	-0.0375 ± 0.039	-0.0025 ± 0.0035	-0.0255 ± 0.044	-0.01 ± 0.044	-0.0255 ± 0.0035	-0.017 ± 0.02	-0.012 ± 0.0071	-0.036 ± 0.0042	-0.0045 ± 0.05	-0.0245 ± 0.037	0.0005 ± 0.057	0.035 ± 0.081
HDF3CGF:CXCL8/IL-8	-0.006 ± 0.0057	-0.0105 ± 0.00071	-0.0065 ± 0.013	-0.0055 ± 0.0021	-0.002 ± 0.0057	-0.024 ± 0.037	0.0065 ± 0.005	0.02 ± 0.011	0.0345 ± 0.016	0.011 ± 0.0071	-0.004 ± 0.013	0.0015 ± 0.005	0.0185 ± 0.016	-0.0055 ± 0.0021	-0.0055 ± 0.0064	0.0015 ± 0.0035	-0.0025 ± 0.005	-0.018 ± 0.0099	-0.002 ± 0.0042
lMphg:CCL3/MIP-1alpha	-0.011 ± 0.011	-0.0175 ± 0.0064	0.017 ± 0.045	0.033 ± 0.031	0.023 ± 0.0042	0.0285 ± 0.033	0.004 ± 0.013	-0.0125 ± 0.049	0.0325 ± 0.035	0.112 ± 0.013	-0.0185 ± 0.026	-0.0065 ± 0.012	-0.0065 ± 0.019	-0.005	-0.0065 ± 0.0021	0.0195 ± 0.036	0 ± 0.0099	-0.0215 ± 0.016	0.0035 ± 0.044
CASM3C:M-CSF	-0.021 ± 0.038	-0.0125 ± 0.00071	0.0205 ± 0.035	-0.0125 ± 0.025	0.0055 ± 0.032	0.0085 ± 0.043	0.0145 ± 0.0078	0.0345 ± 0.019	0.0045 ± 0.00071	0.0395 ± 0.0092	-0.09 ± 0.035	-0.02 ± 0.023	0.034 ± 0.0014	-0.007 ± 0.0014	-0.012 ± 0.0028	0.0205 ± 0.028	-0.059 ± 0.027	-0.0055 ± 0.0078	0.0115 ± 0.061
HDF3CGF:CD54/ICAM-1	-0.01 ± 0.052	0.017 ± 0.024	-0.0025 ± 0.0064	-0.014 ± 0.0099	-0.0225 ± 0.013	-0.0255 ± 0.0078	-0.0485 ± 0.0092	-0.071	0.133 ± 0.019	0.089 ± 0.0042	0.002 ± 0.0014	-0.003 ± 0.0028	-0.008 ± 0.014	-0.035 ± 0.042	-0.052 ± 0.021	-0.045 ± 0.02	-0.003 ± 0.013	-0.0055 ± 0.011	-0.0095 ± 0.0078
MyoF:Decorin	0.01 ± 0.017	0.0135 ± 0.00071	0.0325 ± 0.028	0.0185 ± 0.011	0.023 ± 0.0042	-0.012 ± 0.044	0.0055 ± 0.0064	-0.071 ± 0.018	-0.0095 ± 0.016	-0.085 ± 0.028	-0.0075 ± 0.03	-0.013 ± 0.017	0.012 ± 0.04	0.0315 ± 0.0035	0.051 ± 0.0071	0.093 ± 0.016	-0.016 ± 0.011	-0.025 ± 0.017	-0.027 ± 0.0099
